Source: patent US10157261B2, “Transcriptome-wide design of selective, bioactive small molecules targeting RNA” (The Scripps Research Institute, priority 2013, dated 2018)
One block for each molecule: values may come before it.

Tests used:
miR-96 = assay: qRT-PCR of mature miRNA in MCF7 cells; assay type: cell-based, human
Description: (§1) MCF7 cells were cultured in either 6-well or 12-well plates, and total RNA was extracted using TRIzol LS reagent (Ambion) per the manufacturer's protocol. Approximately 200 ng of total RNA was used in reverse transcription (RT) reactions, which were completed using a Taqman MicroRNA RT Kit (Applied Biosystems) or a miScript II RT kit (Qiagen) per the manufacturer's protocol. qRT-PCR was performed on a 7900HT Fast Real Time PCR System (Applied Biosystem) using Taqman Universal PCR Master Mix or power SYBR green master mix (Applied Biosystems). All primer sets for mature miRNAs were purchased from Applied Biosystems. The expression level of mature miRNAs was normalized to U6 small nuclear RNA.
(§2) Pri-, pre-, and mature miR-96 RT-PCR products were analyzed on a denaturing 10% polyacrylamide gel stained with ethidium bromide. Expression levels were normalized to GAPDH.

pri-miR-96 = assay: qRT-PCR of pri-miR-96 in MCF7 cells; assay type: cell-based, human
Description: as §2

FOXO1 protein = assay: Western blotting; assay type: cell-based, human; conditions: 50 nM, MCF7 cells
Description: MCF7 cells were grown in 6-well plates to ˜80% confluency in complete growth medium. […] Total protein was extracted using M-PER Mammalian Protein Extraction Reagent (Pierce Biotechnology) using the manufacturer's protocol. Extracted total protein was quantified using a Micro BCA Protein Assay Kit (Pierce Biotechnology). Approximately 40 μg of total protein was resolved on an 8% SDS-polyacrylamide gel, and then transferred to a PVDF membrane. The membrane was briefly washed with 1× Tris-buffered saline (TBS), and then blocked in 5% milk in 1×TBST (1×TBS containing 0.1% Tween-20) for 1 h at room temperature. The membrane was then incubated in 1:1000 FOXO1 primary antibodies (Cell Signaling Technology) in 1×TBST containing 3% BSA overnight at 4° C. The membrane was washed with 1×TBST and incubated with 1:2000 anti-rabbit IgG horseradish-peroxidase secondary antibody conjugate (Cell Signaling Technology) in 1×TBS for 1 h at room temperature. After washing with 1×TBST, protein expression was quantified using SuperSignal West Pico Chemiluminescent Substrate (Pierce Biotechnology) per the manufacturer's protocol. The membrane was then stripped using 1× Stripping Buffer (200 mM glycine, pH 2.2 and 0.1% SDS) followed by washing in 1×TBS. […] Image J software from the National Institutes of Health was used to quantify band intensities.

[1] = biological target: 5′UUU/3′AUA RNA (loop near the processing site of miRNA-96 precursor); assay: in solution, fluorescence-based binding affinity assay; parameters: species or system human
Description: (§3) Dissociation constants were determined using an in solution, fluorescence-based assay (Disney et al., J. Am. Chem. Soc. 130, 11185-11194 (2008)). The RNA of interest was folded in 1× Assay Buffer (8 mM Na2HPO4, pH 7.0, 190 mM NaCl, 1 mM EDTA and 40 μg/mL BSA) by heating at 60° C. for 5 min and slowly cooling to room temperature. A selected fluorescently labeled compound was added to a final concentration of 50 nM for compounds 1-Fl, 4-Fl, and 5-Fl or 500 nM for compound 2. Serial dilutions (1:2) were then completed in 1× Assay Buffer supplemented with 50 nM of compounds 1-Fl, 4-Fl, or 5-Fl or 500 nM of 2. The solutions were incubated for 30 min at room temperature and then transferred to a 96-well plate and fluorescence intensity measured. The change in fluorescence intensity as a function of RNA concentration was fit to the following equation (Wang & Rando, Chem. Biol. 2, 281-290. (1995)): I=I0+0.5Δε(([FL]0+[RNA]0+Kt)−(([FL]0+[RNA]0+Kt)^2−4[FL]0[RNA]0)^0.5) where I and I0 are the observed fluorescence intensity in the presence and absence of RNA respectively, Δε is the difference between the fluorescence intensity in the absence of RNA and in the presence of infinite RNA concentration, [FL]0 and [RNA]0 are the concentrations of small molecule and RNA, respectively, and Kt is the dissociation constant.
(§4) The targetable loops (motifs) were embedded into C1 (FIG. 1) so that affinity measurements could be completed. The secondary structures of the RNAs as predicted by RNAstructure (Mathews et al., Proc. Natl. Acad. Sci. U.S.A. 101, 7287-7292 (2004).) and representative binding curves are shown in (FIG. 4D-4I).

5′CGA/3′GGU RNA = assay: as above; parameters: species or system human; conditions: read-out: Dissociation constants, 5′CGA/3′GGU
Description: as §3, §4

5′CGAUU/3′GGUAUA RNA = assay: as above; parameters: species or system human; conditions: read-out: Dissociation constants, 5′CGAUU/3′GGUAUA
Description: as §3, §4

C1 (cassette RNA) = assay: as above; conditions: read-out: Dissociation constants, C1
Description: as §3, with “constant. […]” for “constant.”

H Hairpin (DNA hairpin) = assay: as above; conditions: read-out: Dissociation constants, H Hairpin
Description: as §3, with “constant. […]” for “constant.”

[2] = tested on: MCF10A (healthy breast cells); assay: Annexin V/PI assay; assay type: cell-based, human; conditions: 50 nM, 72 hours
Description: Annexin V/PI Assays: MDA MB 231 or MCF-10A cells were grown in 6-well plates to 40-50% confluency. The cells were incubated with 50 nM of small molecule for 72 h and then detached from the surface using accutase. They were washed twice each with ice cold 1×DPBS and 1× Annexin Binding Buffer (50 mM Hepes (pH 7.4), 700 mM NaCl and 12.5 mM CaCl2). The cells were resuspended in 100 μL 1× Annexin Binding Buffer, and then 5 μL Annexin V-APC (eBioscience) were added. The solution was incubated for 10 min at room temperature followed by washing with 1× Annexin Binding Buffer. The cells were then stained with 1 μg/mL propidium iodide in 300 μL of 1× Annexin Binding Buffer for 15 min at room temperature. Flow cytometry was performed using a BD LSRII instrument (BD Biosciences). At least 10,000 events were used for analysis.

pre-miR-96 = assay: qRT-PCR of pre-miR-96 in MCF7 cells; assay type: cell-based, human; conditions: 50 nM
Description: as §2

[3] = tested on: miR-96-FOXO1 luciferase model system; assay: Dual luciferase assay, miR-96 3′ UTR target; assay type: cell-based, human; conditions: 40 μM, MCF7 cells
Description: MCF7 cells were grown in 96-well plates to ˜80% confluency in complete growth medium. The cells were transiently transfected with 100 ng of plasmid encoding either the miR-96 3′ UTR target or a mutated 3′ UTR target using Lipofectamine 2000 per the manufacturer's protocol. Approximately 5 h post transfection, the small molecule of interest was added in complete growth medium, and the cells were incubated for another 20 h. Luciferase activity was then measured using a Dual Glo Luciferase Assay System (Promega) per the manufacturer's protocol. The values reported are the average of at least three measurements, and errors are the corresponding standard deviations.

miR-183 = assay: qRT-PCR of mature miRNA in MCF7 cells; assay type: cell-based, human; conditions: 40 μM, 20 h
Description: as §1

miR-182 = assay: qRT-PCR of mature miRNA in MCF7 cells; assay type: cell-based, human; conditions: 40 μM, 20 h
Description: as §1

MCF7 cells = assay: APO BrdU TUNEL assay; assay type: cell-based, human; conditions: 40 μM
Description: ON-TARGETplus SMARTpool FOXO1 siRNA and ONTARGETplus GAPD Control Pool were purchased from Dharmacon (Thermo Scientific) and were used at a final concentration of 100 nM. MCF7 cells were reverse transfected in a 6-well plate using Lipofectamine RNAiMAX reagent (Invitrogen) per the manufacturer's protocol.
MCF7 cells were grown in 6-well plates to 70-80% confluency. For experiments in which RNAi was used to knock down FOXO1 or GAPDH expression, the cells were first transfected as described above. Cells were treated with small molecules for 20 h followed by completion of an APO BrdU TUNEL assay (Molecular Probes) per the manufacturer's protocol. Flow cytometry was performed using a BD LSRII instrument (BD Biosciences). At least 10,000 events were used for analysis.

miR-210 = assay: qRT-PCR of mature miRNA; assay type: cell-based, human; conditions: 500 nM, ACHN renal cancer cell line
Description: as §1

Structure (SMILES): C#CCCCC(=O)NCC1O[C@H](O[C@@H]2C(N)C[C@@H](N)C(O[C@@H]3OC(CO)[C@H](O)C(N)C3O)[C@H]2O)C(O)[C@@H](O)[C@@H]1O (some centres unmarked) [Compound 3]
effect on miR-96 expression (miR-96; 200 μM): a less, but significant, effect

Structure (SMILES): CCCN(CC(=O)N(CCC)CC(=O)N(CC(N)=O)Cc1cn(CCCNC(=O)CCCOc2c(C(C)(C)C)cc(-c3nc4cc(N5CCN(C)CC5)ccc4[nH]3)cc2C(C)(C)C)nn1)C(=O)CCCOc1cccc(-c2nc3ccc(-c4nc5ccc(N6CCN(C)CC6)cc5[nH]4)cc3[nH]2)c1 [BSH-2-H]
production of pri-microRNA-96 (pri-miR-96; 50 nM): boosting production of the pri-microRNA-96 | increase of pri-miRNA 96 (pri-miR-96; 24 hours): about 2.3 fold | production of mature microRNA-96 (miR-96; 50 nM): significantly inhibited production of the mature microRNA-96 | effect on mature miRNA-96 levels (miR-96; 1 μM, 0.5 μM and 0.05 μM, 24 hours): reduced mature miRNA-96 levels in a dose-dependent fashion | increase in FOXO1 protein expressed (FOXO1 protein): 2.5 fold | Kd ([1]; read-out: Dissociation constants, 5′UUU/3′AUA): 1170 ± 279 nM | Kd (5′CGA/3′GGU RNA): 900 ± 200 nM | Kd (5′CGAUU/3′GGUAUA RNA): 85 ± 11 nM | Kd (C1 (cassette RNA)): > 4000 nM | Kd (H Hairpin (DNA hairpin)): > 50000 nM | effect on apoptosis in healthy breast cells [2]: no effect on apoptosis | production of pre-microRNA-96 (pre-miR-96): inhibiting production of the pre-microRNA-96

binding affinity for the miR-96 precursor [1]: lack of binding affinity
Structure (SMILES): CN1CCN(c2ccc3nc(-c4ccc(OCCCC(=O)NCCCN=[N+]=[N-])cc4)[nH]c3c2)CC1 [Compound 5]
effect on luciferase expression [3]: no effect | effect on miR-96 expression (miR-96; 40 μM, 20 h): do not affect | effect on miR-183 expression (miR-183): do not affect | effect on miR-182 expression (miR-182): do not affect | induction of apoptosis (MCF7 cells): do not induce apoptosis

binding affinity for the miR-96 precursor [1]: lack of binding affinity
Structure (SMILES): CN1CCN(c2ccc3nc(-c4ccc5nc(-c6cccc(OCCCC(=O)NCCCN=[N+]=[N-])c6)[nH]c5c4)[nH]c3c2)CC1 [Compound 2]
effect on luciferase expression [3]: no effect | effect on miR-96 expression (miR-96; 40 μM, 20 h): do not affect | effect on miR-183 expression (miR-183): do not affect | effect on miR-182 expression (miR-182): do not affect | induction of apoptosis (MCF7 cells): do not induce apoptosis | reduction of formation of miR-210 (miR-210): 60%
